Test results reported in ChEMBL document CHEMBL1201862, “PubChem BioAssay data set” (2004).
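Tested at 5 concentrations; 48 h exposure; 96-well plates; endpoints linearly interpolated, else capped at highest concentration. GI50 marks 50% less growth.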 Calls of active or inactive are those of the source. No stated cut-off is given here; in the data, active = GI50 up to about 1.1 µM and inactive = higher.

Key:
Assay in all cases: NCI anticancer screen, dose series, 48 h
A549 = test system: A549
CAKI-1 = test system: CAKI-1
CCRF-CEM = test system: CCRF-CEM
HCC 2998 = test system: HCC 2998
HCT-116 = test system: HCT-116
HCT-15 = test system: HCT-15
K562 = test system: K562
KM12 = test system: KM12
LOX IMVI = test system: LOX IMVI
M14 = test system: M14
MCF7 = test system: MCF7
MDA-MB-231 = test system: MDA-MB-231
MOLT-4 = test system: MOLT-4
NCI-H226 = test system: NCI-H226
NCI-H23 = test system: NCI-H23
OVCAR-5 = test system: OVCAR-5
PC-3 = test system: PC-3
SK-MEL-5 = test system: SK-MEL-5
SNB-19 = test system: SNB-19
UACC-62 = test system: UACC-62

Row | SMILES | GI50 (A549) | GI50 (CAKI-1) | GI50 (CCRF-CEM) | GI50 (HCC 2998) | GI50 (HCT-116) | GI50 (HCT-15) [µM] | GI50 (K562) | GI50 (KM12) | GI50 (LOX IMVI) | GI50 (M14) | GI50 (MCF7) | GI50 (MDA-MB-231) | GI50 (MOLT-4) | GI50 (NCI-H226) | GI50 (NCI-H23) | GI50 (OVCAR-5) | GI50 (PC-3) | GI50 (SK-MEL-5) | GI50 (SNB-19) | GI50 (UACC-62)
1 | O=C1C2CCCCC2C(=O)N1n1c(Cc2ccc(Cl)cc2)n[nH]c1=O (configuration not stated) | > 100 µM (inactive) | > 100 µM (inactive) | > 100 µM (inactive) | > 100 µM (inactive) | > 100 µM (inactive) | > 100 | > 100 µM (inactive) | > 100 µM (inactive) | > 100 µM (inactive) | > 100 µM (inactive) | > 100 µM (inactive) | > 100 µM (inactive) | > 100 µM (inactive) | > 100 µM (inactive) | > 100 µM (inactive) | > 100 µM (inactive) | > 100 µM (inactive) | > 100 µM (inactive) | > 100 µM (inactive) | > 100 µM (inactive)
2 | c1ccc2cc(CN3CCC(C4CCN(Cc5ccc6ccccc6c5)CC4)CC3)ccc2c1 | 4.2 µM (inactive) | 5.53 µM (inactive) | 4.06 µM (inactive) | 1.1 µM (active) | 6.79 µM (inactive) | 3.18 | 0.692 µM (active) | 2.97 µM (inactive) | 2.22 µM (inactive) | 1.91 µM (inactive) | 2.06 µM (inactive) | 4.82 µM (inactive) | 3.41 µM (inactive) | 11.4 µM (inactive) | 11.4 µM (inactive) | 10.1 µM (inactive) | 9.42 µM (inactive) | 2.06 µM (inactive) | 11.5 µM (inactive) | 2.03 µM (inactive)
3 | CCCNC(=O)N(C)C(=O)N1N=C(c2ccccc2)C1c1ccccc1 (configuration not stated) | 78.9 µM (inactive) | 75.3 µM (inactive) | 17.7 µM (inactive) | 60 µM (inactive) | 51.8 µM (inactive) | 45.3 | 49 µM (inactive) | 40.5 µM (inactive) | 75.5 µM (inactive) | > 100 µM (inactive) | > 100 µM (inactive) | > 100 µM (inactive) | 23.7 µM (inactive) | > 100 µM (inactive) | > 100 µM (inactive) |  | 56.9 µM (inactive) | 87.3 µM (inactive) | > 100 µM (inactive) | 59.3 µM (inactive)
4 | Nc1cnc(Nc2cccc3ccccc23)o1 | > 10 µM (inactive) | > 10 µM (inactive) | > 10 µM (inactive) | > 10 µM (inactive) | > 10 µM (inactive) | > 10 | > 10 µM (inactive) | > 10 µM (inactive) | > 10 µM (inactive) | > 10 µM (inactive) | > 10 µM (inactive) | > 10 µM (inactive) |  | > 10 µM (inactive) | > 10 µM (inactive) |  | > 10 µM (inactive) | > 10 µM (inactive) | > 10 µM (inactive) | > 10 µM (inactive)
5 | O=C1C=CC2(C=C1)CCC(=O)O2 | 20.6 µM (inactive) | 5.87 µM (inactive) | 5.82 µM (inactive) | 14.2 µM (inactive) | 14.8 µM (inactive) | 7.52 | 10.7 µM (inactive) | 15.3 µM (inactive) | 4.83 µM (inactive) | 29.2 µM (inactive) | 13.4 µM (inactive) | 10.1 µM (inactive) | > 100 µM (inactive) | 19.2 µM (inactive) | 14.2 µM (inactive) | 22.7 µM (inactive) | 12.6 µM (inactive) | 16.3 µM (inactive) | 17.5 µM (inactive) | 16.5 µM (inactive)
6 | Cc1nnc2n1-c1ccccc1C(=S)N1CSCC21 (configuration not stated) | > 100 µM (inactive) | > 100 µM (inactive) | > 100 µM (inactive) | > 100 µM (inactive) | > 100 µM (inactive) | 79.3 | > 100 µM (inactive) | > 100 µM (inactive) | > 100 µM (inactive) | > 100 µM (inactive) | > 100 µM (inactive) | > 100 µM (inactive) | > 100 µM (inactive) | > 100 µM (inactive) |  | > 100 µM (inactive) | > 100 µM (inactive) | > 100 µM (inactive) | > 100 µM (inactive) | > 100 µM (inactive)
7 | CCC1CC(C)C(O)/C=C/C=C/CC(C)OC(=O)CC(O)C(OC)C1OC1OC(C)CC(O)(C(C)=O)C1O (configuration not stated) | > 100 µM (inactive) | 13.1 µM (inactive) | 46.5 µM (inactive) | 21.7 µM (inactive) | > 100 µM (inactive) | 23.9 |  | 35.2 µM (inactive) | > 100 µM (inactive) | 78.5 µM (inactive) | 40.3 µM (inactive) | 16 µM (inactive) | 21.7 µM (inactive) | 47.6 µM (inactive) | 45.2 µM (inactive) | > 100 µM (inactive) | 66.1 µM (inactive) | 69 µM (inactive) | 19.3 µM (inactive) | > 100 µM (inactive)
8 | O=c1c2nc[nH]c2n(-c2ccccc2)c(=S)n1-c1ccccc1 | > 100 µM (inactive) | > 100 µM (inactive) | > 100 µM (inactive) | > 100 µM (inactive) | > 100 µM (inactive) | > 100 | > 100 µM (inactive) | > 100 µM (inactive) | > 100 µM (inactive) | > 100 µM (inactive) | > 100 µM (inactive) | > 100 µM (inactive) | > 100 µM (inactive) | > 100 µM (inactive) | > 100 µM (inactive) | > 100 µM (inactive) | > 100 µM (inactive) | > 100 µM (inactive) |  | > 100 µM (inactive)
9 | COc1cccc(Nc2nc(N)nc(N)c2N=O)c1 | 31 µM (inactive) | 11.3 µM (inactive) | 23.2 µM (inactive) | 17.4 µM (inactive) | 18.4 µM (inactive) | 22 | 31.3 µM (inactive) | 29.1 µM (inactive) | 15.1 µM (inactive) | 30.8 µM (inactive) | 3.8 µM (inactive) | 28.5 µM (inactive) | 7.24 µM (inactive) | 22.5 µM (inactive) | 15.3 µM (inactive) | 37.8 µM (inactive) | 10.2 µM (inactive) | 18.7 µM (inactive) | 38.6 µM (inactive) | 15.5 µM (inactive)
10 | CCOC(=O)c1sc2c(c1OC(=O)c1ccccc1)c(=O)n(-c1ccccc1)c(=S)n2-c1ccccc1 | 26.1 µM (inactive) | 97.9 µM (inactive) | 41.8 µM (inactive) | 25.1 µM (inactive) | 16.2 µM (inactive) | 45.5 | 28.4 µM (inactive) | 40.6 µM (inactive) | 40.3 µM (inactive) | 19.9 µM (inactive) | 29.4 µM (inactive) | 28.5 µM (inactive) | 42.8 µM (inactive) | > 100 µM (inactive) | 21 µM (inactive) | 68.7 µM (inactive) | 33.7 µM (inactive) | 20.7 µM (inactive) | 40.3 µM (inactive) | 23.7 µM (inactive)
11 | CN1CCN(Cn2nc(-c3ccccc3)n(/N=C/c3ccc(-c4ccc(Cl)cc4Cl)o3)c2=S)CC1 |  | 7.36 µM (inactive) | 4.17 µM (inactive) | 12.8 µM (inactive) | 3.66 µM (inactive) | 4.18 | 2.39 µM (inactive) | 9.73 µM (inactive) | 13 µM (inactive) | 10.8 µM (inactive) | 12.4 µM (inactive) | 13.9 µM (inactive) | 0.0713 µM (active) | 20 µM (inactive) | 18.7 µM (inactive) | 15.2 µM (inactive) | 8.43 µM (inactive) | 7.71 µM (inactive) |  | 
12 | CCCCCCCCCCCCCCCCNc1nc(=O)n(C2OC(C)C(O)C2O)cc1F (configuration not stated) | 23.1 µM (inactive) | 21.1 µM (inactive) | 16.3 µM (inactive) | 16.9 µM (inactive) | 18.4 µM (inactive) | 14.9 |  | 17.4 µM (inactive) | 24.3 µM (inactive) | 17.2 µM (inactive) | 17 µM (inactive) | 20.7 µM (inactive) | 20.2 µM (inactive) | 21 µM (inactive) | 18 µM (inactive) | 20.6 µM (inactive) | 13.2 µM (inactive) | 18.5 µM (inactive) | 18.8 µM (inactive) | 15.6 µM (inactive)
13 | Cc1ccc(S(=O)(=O)Nn2c(S)c(C#N)c(-c3ccc([N+](=O)[O-])cc3)c(C#N)c2=O)cc1 | 47.9 µM (inactive) | > 100 µM (inactive) | 23.2 µM (inactive) | 31.6 µM (inactive) | 16.9 µM (inactive) | 17.3 | 21.2 µM (inactive) | 31.6 µM (inactive) | 14.8 µM (inactive) | 35.1 µM (inactive) | 25.6 µM (inactive) | 17.7 µM (inactive) | 17.3 µM (inactive) | 40.6 µM (inactive) |  | 72.9 µM (inactive) | 27.2 µM (inactive) | 12 µM (inactive) |  | 25.8 µM (inactive)
14 | COc1cc2c(cc1OCCCCCN1C(=O)c3cccc4cccc(c34)C1=O)N=C[C@@H]1CCCN1C2=O | 0.535 µM (active) | 0.208 µM (active) | 0.0142 µM (active) | 0.3 µM (active) | 0.215 µM (active) | 0.331 | 0.114 µM (active) | 0.231 µM (active) | 0.126 µM (active) | 0.24 µM (active) | 0.181 µM (active) | 0.286 µM (active) | 0.0743 µM (active) | 0.177 µM (active) | 0.222 µM (active) | 0.406 µM (active) | 0.282 µM (active) | 0.257 µM (active) | 0.327 µM (active) | 0.13 µM (active)
15 | CO[C@H]1[C@@H](O)[C@@H](C)O[C@@H](O[C@H]2CC[C@@]3(C)[C@H](CC[C@@H]4[C@@H]3CC[C@]3(C)[C@@H](C5=CC(=O)OC5)CC[C@]43O)C2)[C@@H]1O [ODOROSIDE H] | 0.00288 µM (active) | 0.0048 µM (active) | 0.00422 µM (active) | 0.0149 µM (active) | 0.00482 µM (active) | 0.00766 |  | 0.0112 µM (active) | 0.00689 µM (active) | 0.0137 µM (active) | 0.00773 µM (active) | 0.0413 µM (active) | < 0.0025 µM (active) | 0.0488 µM (active) | 0.00462 µM (active) | 0.0321 µM (active) | 0.00426 µM (active) | 0.00509 µM (active) | 0.0215 µM (active) | 0.00689 µM (active)
